Reference: patent US20030187056A1, “Live cell procedures to identify to identify compounds modulating intracellular distribution of phosphodiesterase( pde) enzymes” (priority 2000, published 2003)

What was measured:
[1] = human, in vivo; cited from earlier work
HSPDE4A4-H506N-EGFP = biological target: T1, HSPDE4A4-H506N-EGFP (Homo sapiens, UniProt P27815, H506N); assay: Spot formation in CHO cells transfected with HSPDE4A4-H506N-EGFP; assay type: cell-based; conditions: clonal cells, over the concentrations tested
T1 construct: expressed in transfected cells
T1 sequence (P27815 whole entry H506N): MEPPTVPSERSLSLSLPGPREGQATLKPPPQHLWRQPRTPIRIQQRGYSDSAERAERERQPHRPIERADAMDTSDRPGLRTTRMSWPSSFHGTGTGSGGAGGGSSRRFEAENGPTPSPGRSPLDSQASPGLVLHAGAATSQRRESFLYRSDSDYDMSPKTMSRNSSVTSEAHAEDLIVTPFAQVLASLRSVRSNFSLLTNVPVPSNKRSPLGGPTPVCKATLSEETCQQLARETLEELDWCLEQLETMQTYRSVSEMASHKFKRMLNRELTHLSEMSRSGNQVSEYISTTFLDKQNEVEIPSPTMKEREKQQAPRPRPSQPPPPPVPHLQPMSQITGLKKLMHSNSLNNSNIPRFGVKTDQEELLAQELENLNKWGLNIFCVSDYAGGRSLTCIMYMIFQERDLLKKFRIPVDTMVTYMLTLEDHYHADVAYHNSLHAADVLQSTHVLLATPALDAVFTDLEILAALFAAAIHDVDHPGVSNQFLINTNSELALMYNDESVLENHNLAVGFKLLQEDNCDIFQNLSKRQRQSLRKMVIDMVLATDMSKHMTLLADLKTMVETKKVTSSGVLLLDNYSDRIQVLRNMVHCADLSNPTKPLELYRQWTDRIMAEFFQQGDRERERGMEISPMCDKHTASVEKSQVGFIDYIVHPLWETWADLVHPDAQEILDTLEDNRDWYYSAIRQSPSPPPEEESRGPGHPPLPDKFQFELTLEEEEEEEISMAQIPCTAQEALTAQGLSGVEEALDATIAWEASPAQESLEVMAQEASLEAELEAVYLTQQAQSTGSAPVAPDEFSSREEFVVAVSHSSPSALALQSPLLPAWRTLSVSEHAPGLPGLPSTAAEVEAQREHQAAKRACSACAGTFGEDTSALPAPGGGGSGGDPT
Experimental: (§1) The cells are then fixed with 4% formaldehyde buffer (pH7) for 1 hour, washed with PBS and stained with 1 μM Hoechst 33258 in PBS for 10 minutes at 25° C., then washed twice in PBS. Automated images are collected and analysed for the number of spots per cell as described in Example 2.
Cells are grown in HAM's F12 medium plus 10% FBS plus various concentrations of inhibitors for 23.5 hours. The cells are then fixed with 4% formaldehyde buffer (pH7) for 1 hour, washed with PBS and stained with 1 μM Hoechst 33258 in PBS for 10 minutes at 25° C., then washed twice in PBS. Automated images are collected and analysed for the number of spots per cell as described in Example 2.

HSPDE4A1-EGFP = biological target: T2, HSPDE4A1-EGFP (Homo sapiens, UniProt P27815); assay: Competitive assay: reversal of Rolipram-induced spot dispersal, HSPDE4A1-EGFP CHO cells; assay type: cell-based; conditions: predicted
T2 construct: the ca. 1.95 kb coding region of HSPDE4A1 (GenBank Acc.no. U97584) is amplified; expressed in transfected cells
T2 sequence (P27815 1-647 isoform P27815-4): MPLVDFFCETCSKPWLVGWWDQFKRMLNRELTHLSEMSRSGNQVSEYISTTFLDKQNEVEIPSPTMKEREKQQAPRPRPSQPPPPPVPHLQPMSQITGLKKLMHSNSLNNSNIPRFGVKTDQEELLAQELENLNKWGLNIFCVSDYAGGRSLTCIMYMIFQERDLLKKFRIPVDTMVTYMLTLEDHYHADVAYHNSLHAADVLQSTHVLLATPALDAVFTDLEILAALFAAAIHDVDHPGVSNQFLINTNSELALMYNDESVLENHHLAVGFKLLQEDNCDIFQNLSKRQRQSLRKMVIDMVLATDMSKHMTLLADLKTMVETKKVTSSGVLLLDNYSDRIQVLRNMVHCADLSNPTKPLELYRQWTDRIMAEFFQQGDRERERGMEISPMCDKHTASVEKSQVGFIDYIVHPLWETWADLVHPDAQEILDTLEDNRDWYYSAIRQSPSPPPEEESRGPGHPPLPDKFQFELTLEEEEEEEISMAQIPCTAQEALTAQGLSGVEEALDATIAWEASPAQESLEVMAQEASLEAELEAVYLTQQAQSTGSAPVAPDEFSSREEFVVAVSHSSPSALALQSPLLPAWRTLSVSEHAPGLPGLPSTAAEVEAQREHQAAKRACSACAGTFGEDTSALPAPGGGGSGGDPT

HSPDE4A4-EGFP [2] = biological target: T3, HSPDE4A4-EGFP (Homo sapiens, UniProt P27815); assay: Dispersal of preformed Rolipram-induced spots, HSPDE4A4-EGFP CHO cells; assay type: cell-based; conditions: yes/no
T3 construct: expressed in transfected cells
T3 sequence (P27815 whole entry): as the sequence (P27815 whole entry H506N) above, with N506H counted along it

PDE4 = conditions: yes/no; cited from earlier work
HSPDE4A4-EGFP [3] = biological target: T3, HSPDE4A4-EGFP; assay: Spot formation in CHO cells transfected with HSPDE4A4-EGFP; assay type: cell-based
Experimental: Chinese hamster ovary cells (CHO), are transfected with the plasmids described in Example 1 above using the transfection agent FuGENE™ 6 (Boehringer Mannheim Corp, USA) according to the method recommended by the suppliers. Stable transfectants are selected using 1 mg/ml G418 sulphate (Calbiochem) in the growth medium (HAM's F12 nutrient mix with Glutamax-1, 10% foetal bovine serum (FBS), 100 μg penicillin-streptomycin mixture ml^−1 (GibcoBRL, supplied by Life Technologies, Denmark). Cell are cultured at 37° C. in 100% humidity and conditions of normal atmospheric gases supplemented with 5% CO2.
For fluorescence microscopy, cells are allowed to adhere to Lab-Tek chambered coverglasses (Nalge Nunc International, Naperville USA) for at least 24 hours and are then cultured to about 80% confluence. Cells can also be grown in plastic 96-well plates (Polyfiltronics Packard 96-View Plate or Costar Black Plate, clear bottom; both types tissue culture treated) for imaging purposes. Prior to experiments, the cells are cultured over night without G418 sulphate in HAM F-12 medium with glutamax, 100 μg penicillin-streptomycin mixture ml^−1 and 10% FBS. This medium has low autofluorescence enabling fluorescence microscopy of cells straight from the incubator. For certain tests requiring medium of defined composition, particularly with regard to the presence of specific cell growth factors, the HAM's culture medium is replaced prior to imaging with a buffered saline solution (KRW buffer) containing (in mM) 3.6 KCl, 140 NaCl, 2 NaHCO3, 0.5 NaH2PO4, 0.5 MgSO4, 1.5 CaCl2, 10 Hepes, 5 glucose, pH7.4.
Changes in cellular distribution of a transfected probe can be imaged and quantified in an automated fashion. For this purpose cells are cultured to near 80% to 90% confluence in coverglass chambers or plastic 96-well plates, given the relevant treatment and allowed to respond. At the end of the response period, cells are fixed in 4% formaldehyde buffer (Lillies fixative buffer, pH7.0: Bie and Berntsen A/S, Denmark) for 30 minutes to 2 hours, then washed in phosphate buffered saline (PBS, Life Technologies, Denmark). Nuclear DNA is stained with 1 μM Hoechst 33258 (Molecular Probes, Eugene, Oreg., USA) in PBS for 10 minutes at 25° C., then washed twice in PBS. Automated images are collected on a Nikon Diaphot 300 (Nikon, Japan) using a Nikon Plan Fluor 20X/0.5NA objective lens. The basic microscope is fitted with a motorised specimen stage and motorised focus control (Prior Scientific, Fulbourn, Cambridge UK), excitation filter wheel (Sutter Instruments, Novato Calif. USA) and Photometrics PXL series camera with a KAF1400 CCD chip (Photometrics, Tucson, Ariz. USA), each of these items being under the control of an Macintosh 7200/90 computer (Apple Computer, Cupertino, Calif. USA). Automation of stage positioning, focus, excitation filter selection, and image acquisition is performed using macros written in-house, running under IPLab Spectrum for Macintosh (Scanalytics, Fairfax, Va. USA). Fluorescence illumination comes from a 100 W HBO lamp. Images are collected in pairs, the first using a 340/10 nm excitation filter, the second with a 475RDF40 excitation filter (Chroma, Brattleboro, Vt.). Both images are collected via the same dichroic and emission filters, which are optimised for EGFP applications (XF100 filter set, Omega Optical, Brattleboro, Vt.). While the choice of filters for imaging the nuclear stain (Hoechst 33258) is not well matched to that dye's spectral properties, resulting in lower image intensity, it greatly improves the throughput of the procedure by allowing both images to be collected using the same dichroic and emission filter. This eliminates any image registration problems and focus shifts which would result from using two different filter sets, which would require more steps in the acquisition procedure and more extensive image processing to overcome.

HSPDE4A4-ΔLR2-EGFP = biological target: T4, HSPDE4A4-ΔLR2-EGFP (Homo sapiens, UniProt P27815, DEL313-320); assay: Spot formation in CHO cells transfected with HSPDE4A4-ΔLR2-EGFP; assay type: cell-based; conditions: 30 to 0.01 μM
T4 construct: expressed in transfected cells
T4 sequence (P27815 with tags, fused parts or gaps DEL313-320): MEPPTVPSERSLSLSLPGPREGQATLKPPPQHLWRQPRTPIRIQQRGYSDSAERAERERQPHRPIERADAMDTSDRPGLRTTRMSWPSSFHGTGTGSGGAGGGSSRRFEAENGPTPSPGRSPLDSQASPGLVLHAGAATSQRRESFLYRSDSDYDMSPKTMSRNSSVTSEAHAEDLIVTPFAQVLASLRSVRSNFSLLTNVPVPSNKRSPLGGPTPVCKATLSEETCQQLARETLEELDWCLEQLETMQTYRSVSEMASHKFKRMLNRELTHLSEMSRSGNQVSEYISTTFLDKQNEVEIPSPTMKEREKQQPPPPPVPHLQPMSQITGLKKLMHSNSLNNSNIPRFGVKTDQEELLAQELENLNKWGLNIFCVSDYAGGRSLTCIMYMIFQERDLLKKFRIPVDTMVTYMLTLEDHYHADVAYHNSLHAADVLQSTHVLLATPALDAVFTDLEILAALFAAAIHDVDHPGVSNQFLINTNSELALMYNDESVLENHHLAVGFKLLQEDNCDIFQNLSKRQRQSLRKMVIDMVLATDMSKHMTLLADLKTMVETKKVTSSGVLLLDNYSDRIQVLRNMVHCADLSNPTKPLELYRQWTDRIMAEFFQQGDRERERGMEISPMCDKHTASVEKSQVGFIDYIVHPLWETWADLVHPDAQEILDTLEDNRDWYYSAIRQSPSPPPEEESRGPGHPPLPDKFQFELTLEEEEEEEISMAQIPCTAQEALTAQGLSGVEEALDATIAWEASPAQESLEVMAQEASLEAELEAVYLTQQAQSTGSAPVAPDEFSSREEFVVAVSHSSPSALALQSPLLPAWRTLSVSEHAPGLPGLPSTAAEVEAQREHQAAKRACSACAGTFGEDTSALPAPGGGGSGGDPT
Experimental: Stably transfected (non-clonal) cells are allowed to adhere to chambered coverglasses in HAM's F12 medium containing 10% FBS.
as §1

Compound: COc1ccc([C@]2(C#N)CC[C@@H](C(=O)O)CC2)cc1OC1CCCC1 [Ariflo®]
- Clinical effect [1]: anti-
- Emesis [1]: no
- spot formation response (in words) (HSPDE4A4-H506N-EGFP): does not by itself produce spots
- Reversal of Rolipram-induced removal of PDE4A1 spots (predicted, not tested) (HSPDE4A1-EGFP): yes
- Removal of Rolipram-induced PDE4A4-spots (HSPDE4A4-EGFP [2]): yes
- Inhibition of PDE4 catalytic activity (PDE4): yes
- formation of spots, compound alone (in words) (HSPDE4A4-EGFP [3]; observed up to 24 hours): does not by itself produce spots
- Formation of PDE4A4 spots (HSPDE4A4-EGFP [3]; yes/no): no
- formation of spots, compound alone (in words) (HSPDE4A4-ΔLR2-EGFP): does not by itself produce spots
